The structures appear in SMILES notation. Activity calls are given as the source filed them.

For orientation: AC50 means the midpoint of the concentration-response curve, whichever way the signal moves. In general, GI50 refers to the concentration that inhibits growth by half. One may read the EC50 as the concentration at which the effect is half-maximal. As usually defined, the CC50 is the concentration at which the toxic effect on the cells reaches its halfway point.

Experiment [1] is described as follows: HepG2 cell cytotoxicity, dose response, cytotoxicity control for Shn3 inhibitor project, CellTiter-Glo, cherry-picked (AID 624134). Format: functional, cell-based.
A short description of experiment [2]: control 3'UTR Renilla luciferase suppression, dose response, counter-screen for Shn3 inhibitor project, cell-based, Clone20-Shn3RL, cherry-picked (AID 624133). It is filed as functional. Background: The purpose of a counterscreen is to sort out artefacts and off-target activity.
Experiment [3] can be described thus: Shn3 3'UTR reporter inhibitors, dose response, cell-based, Clone20 osteoblasts, firefly luciferase, cherry-picked (AID 624132).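 Also: firefly luciferase luminescence from reporter carrying the Shn3 3'UTR in osteoblasts.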 It is filed as functional.
In experiment [4] the target is Protein Wnt-3a (Mus musculus, UniProt P27467). As to the kind of experiment: Wnt3a-driven reporter signaling inhibition, dose response, selectivity assay for Gli-SUFU antagonist project, Wnt-LIGHT cells, luminescence (AID 651570).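 Also: Wnt-LIGHT reporter cells stimulated with conditioned medium from Wnt3a-producing cells.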 Format: functional. The following applies: read-out: IC50_Mean.
Protein Wnt-3a, sequence (P27467 whole entry): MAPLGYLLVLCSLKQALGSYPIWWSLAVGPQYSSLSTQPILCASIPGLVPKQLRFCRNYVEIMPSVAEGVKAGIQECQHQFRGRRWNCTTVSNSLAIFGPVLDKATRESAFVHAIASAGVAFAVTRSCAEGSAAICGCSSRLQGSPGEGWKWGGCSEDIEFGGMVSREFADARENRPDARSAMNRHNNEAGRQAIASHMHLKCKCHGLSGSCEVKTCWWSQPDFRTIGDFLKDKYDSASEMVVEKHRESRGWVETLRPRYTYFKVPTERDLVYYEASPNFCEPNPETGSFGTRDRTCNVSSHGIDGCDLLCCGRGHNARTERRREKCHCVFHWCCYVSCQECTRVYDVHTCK
For experiment [5], the system named is P388/ADR. Description: cells. Conditions: Mus musculus. It is filed as functional.
For experiment [6], the system named is SN12K1. Description: cells. It is filed as functional. The following applies: Homo sapiens.
The subject of experiment [7] is P388. As to the kind of experiment: cells. Format: functional. Conditions: Mus musculus.
For experiment [8], the target named is Ras and Rab interactor 1/Tyrosine-protein kinase ABL1 (Homo sapiens, UniProt P00519+Q13671). It is filed as functional.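 Also: biochemical TR-FRET dose-response test measuring inhibition of binding between Rin1 and Abl proteins.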
Ras and Rab interactor 1/Tyrosine-protein kinase ABL1, sequence (P00519 whole entry): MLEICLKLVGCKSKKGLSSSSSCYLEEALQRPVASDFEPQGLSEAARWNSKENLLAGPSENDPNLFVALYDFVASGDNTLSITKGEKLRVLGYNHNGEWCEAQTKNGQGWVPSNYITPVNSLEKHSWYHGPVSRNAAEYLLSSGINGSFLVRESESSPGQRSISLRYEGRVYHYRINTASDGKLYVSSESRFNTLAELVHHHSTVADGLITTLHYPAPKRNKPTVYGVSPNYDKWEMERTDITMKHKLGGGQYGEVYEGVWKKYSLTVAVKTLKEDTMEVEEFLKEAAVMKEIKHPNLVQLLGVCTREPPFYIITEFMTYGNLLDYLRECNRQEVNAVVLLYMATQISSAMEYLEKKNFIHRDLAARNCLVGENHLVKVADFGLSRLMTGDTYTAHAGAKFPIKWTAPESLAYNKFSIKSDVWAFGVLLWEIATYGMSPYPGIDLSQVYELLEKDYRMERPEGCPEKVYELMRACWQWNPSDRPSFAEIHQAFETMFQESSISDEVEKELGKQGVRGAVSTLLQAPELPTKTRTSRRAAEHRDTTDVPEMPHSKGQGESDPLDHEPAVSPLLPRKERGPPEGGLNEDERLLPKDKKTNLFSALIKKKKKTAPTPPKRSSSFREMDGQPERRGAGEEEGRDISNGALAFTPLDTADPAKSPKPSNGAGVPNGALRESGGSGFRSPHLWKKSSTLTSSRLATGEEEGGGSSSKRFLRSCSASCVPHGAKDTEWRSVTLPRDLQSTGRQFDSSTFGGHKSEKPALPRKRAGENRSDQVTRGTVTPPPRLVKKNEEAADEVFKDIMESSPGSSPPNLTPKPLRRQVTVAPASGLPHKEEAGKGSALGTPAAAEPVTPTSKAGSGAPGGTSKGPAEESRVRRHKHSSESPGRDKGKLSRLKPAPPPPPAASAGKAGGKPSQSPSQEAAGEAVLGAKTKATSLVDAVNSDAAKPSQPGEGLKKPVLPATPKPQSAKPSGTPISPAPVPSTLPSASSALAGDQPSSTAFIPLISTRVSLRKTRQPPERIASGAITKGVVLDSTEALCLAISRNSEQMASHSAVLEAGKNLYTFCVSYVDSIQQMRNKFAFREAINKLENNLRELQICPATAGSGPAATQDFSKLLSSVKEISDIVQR
Ras and Rab interactor 1/Tyrosine-protein kinase ABL1, sequence (Q13671 whole entry): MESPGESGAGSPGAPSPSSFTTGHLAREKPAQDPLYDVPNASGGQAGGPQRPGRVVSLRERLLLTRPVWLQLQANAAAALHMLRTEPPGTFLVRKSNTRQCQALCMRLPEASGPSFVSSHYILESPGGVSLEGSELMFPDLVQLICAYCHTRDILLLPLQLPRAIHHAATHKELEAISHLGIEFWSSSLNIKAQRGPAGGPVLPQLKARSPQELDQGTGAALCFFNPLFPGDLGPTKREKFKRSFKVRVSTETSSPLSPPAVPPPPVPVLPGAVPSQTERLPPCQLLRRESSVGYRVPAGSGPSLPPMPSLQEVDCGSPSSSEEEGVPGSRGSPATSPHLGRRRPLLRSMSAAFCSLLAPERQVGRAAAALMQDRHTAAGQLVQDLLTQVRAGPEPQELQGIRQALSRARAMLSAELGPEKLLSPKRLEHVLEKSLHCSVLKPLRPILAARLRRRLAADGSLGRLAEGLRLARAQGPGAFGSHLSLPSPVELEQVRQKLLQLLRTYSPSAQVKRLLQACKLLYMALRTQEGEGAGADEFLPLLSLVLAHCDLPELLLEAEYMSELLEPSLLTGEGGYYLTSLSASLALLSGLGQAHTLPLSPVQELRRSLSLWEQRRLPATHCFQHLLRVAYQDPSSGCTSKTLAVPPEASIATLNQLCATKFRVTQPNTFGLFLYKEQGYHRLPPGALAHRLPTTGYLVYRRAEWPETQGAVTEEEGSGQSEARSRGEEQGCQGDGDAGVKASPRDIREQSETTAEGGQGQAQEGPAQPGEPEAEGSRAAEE
Experiment [9] in a line: Luminescence Cell-Based Dose Retest to Confirm Inhibitors of Cancer Stem Cells. [Related pubchem assays (depositor defined):AID2717, AID2721]. It is filed as functional. Conditions: Homo sapiens.
The target in experiment [10] is ADP-ribosylation factor GTPase-activating protein 1 (Rattus norvegicus, UniProt Q62848). As to the kind of experiment: Fluorescence polarization-based biochemical high throughput dose response screening assay to identify inhibitors of ADP-ribosylation factor GTPase activating protein 1 (ARFGAP1). It is filed as functional. (In fluorescence polarisation assays a small probe gives low polarisation when free and higher when bound to something large.)
ADP-ribosylation factor GTPase-activating protein 1, sequence (Q62848 whole entry): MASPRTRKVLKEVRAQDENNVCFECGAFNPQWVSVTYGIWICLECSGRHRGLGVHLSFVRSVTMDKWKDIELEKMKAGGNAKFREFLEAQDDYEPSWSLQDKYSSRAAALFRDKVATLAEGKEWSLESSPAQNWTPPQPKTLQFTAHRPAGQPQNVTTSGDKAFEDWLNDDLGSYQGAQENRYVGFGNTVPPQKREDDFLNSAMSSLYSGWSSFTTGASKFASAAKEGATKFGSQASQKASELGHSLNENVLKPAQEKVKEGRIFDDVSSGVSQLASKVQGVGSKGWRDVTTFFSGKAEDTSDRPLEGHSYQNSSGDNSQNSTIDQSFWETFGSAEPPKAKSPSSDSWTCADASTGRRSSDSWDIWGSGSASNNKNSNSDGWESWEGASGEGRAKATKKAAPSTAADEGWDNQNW

The nature of experiment [11]: Counterscreen for activators of the function of SWI/SNF related, matrix associated, actin dependent regulator of chromatin, subfamily a, member 2 (SMARCA2, BRM): Luminescence-based cell-based high throughput dose response assay to identify non-selective compounds using the VP16 reporter assay. It is filed as functional.
Experiment [12] has as its target SWI/SNF-related matrix-associated actin-dependent regulator of chromatin subfamily A member 2 (Homo sapiens, UniProt P51531). As to the kind of experiment: Luminescence-based cell-based high throughput dose response assay to identify activators of the function of SWI/SNF related, matrix associated, actin dependent regulator of chromatin, subfamily a, member 2 (SMARCA2, BRM). Format: functional.

The target in experiment [13] is Glucose-6-phosphate 1-dehydrogenase (Homo sapiens, UniProt P11413). As to the kind of experiment: human G6PD enzyme inhibitors, dose response, selectivity assay for P. falciparum G6PD inhibitor project, biochemical, fluorescence (AID 504792). It is filed as functional.
Glucose-6-phosphate 1-dehydrogenase, sequence (P11413 whole entry): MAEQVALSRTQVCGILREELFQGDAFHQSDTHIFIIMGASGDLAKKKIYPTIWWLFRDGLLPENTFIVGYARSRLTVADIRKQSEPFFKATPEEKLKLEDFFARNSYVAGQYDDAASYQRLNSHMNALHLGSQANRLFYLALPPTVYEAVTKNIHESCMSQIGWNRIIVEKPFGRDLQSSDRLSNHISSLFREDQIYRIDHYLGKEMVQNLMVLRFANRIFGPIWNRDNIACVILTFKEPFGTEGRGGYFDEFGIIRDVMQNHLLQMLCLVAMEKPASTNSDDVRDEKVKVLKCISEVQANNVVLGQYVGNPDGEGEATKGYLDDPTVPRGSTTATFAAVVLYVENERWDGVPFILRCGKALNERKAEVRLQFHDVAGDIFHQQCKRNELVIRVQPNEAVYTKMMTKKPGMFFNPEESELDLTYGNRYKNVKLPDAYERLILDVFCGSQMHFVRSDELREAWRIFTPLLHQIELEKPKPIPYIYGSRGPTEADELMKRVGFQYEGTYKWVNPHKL
Experiment [14] has as its target Beta-galactosidase (Escherichia coli, UniProt Q8VNN2). As to the kind of experiment: Dose response counterscreen for EBI2 assay utilizing the enzyme, b-galactosidase. It is filed as functional.
Experiment [15] in a line: cytotoxicity in HPDE-C7 cells, cell-based, fluorescence, HTS (AID 430). It is filed as functional. Conditions: Homo sapiens.
Experiment [16] can be described thus: cytotoxicity in KRAS-transformed pancreatic duct cells, primary screen, cell-based, fluorescence, HTS (AID 431). It is filed as functional. Conditions: Homo sapiens.
The target in experiment [17] is T1, Sentrin-specific protease 7 (Homo sapiens, UniProt Q9BQF6).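 Also: Luminescence-based dose-response confirmation of ultra-high-throughput screening hits, measuring inhibition of SENP7.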
T1 sequence (Q9BQF6 whole entry): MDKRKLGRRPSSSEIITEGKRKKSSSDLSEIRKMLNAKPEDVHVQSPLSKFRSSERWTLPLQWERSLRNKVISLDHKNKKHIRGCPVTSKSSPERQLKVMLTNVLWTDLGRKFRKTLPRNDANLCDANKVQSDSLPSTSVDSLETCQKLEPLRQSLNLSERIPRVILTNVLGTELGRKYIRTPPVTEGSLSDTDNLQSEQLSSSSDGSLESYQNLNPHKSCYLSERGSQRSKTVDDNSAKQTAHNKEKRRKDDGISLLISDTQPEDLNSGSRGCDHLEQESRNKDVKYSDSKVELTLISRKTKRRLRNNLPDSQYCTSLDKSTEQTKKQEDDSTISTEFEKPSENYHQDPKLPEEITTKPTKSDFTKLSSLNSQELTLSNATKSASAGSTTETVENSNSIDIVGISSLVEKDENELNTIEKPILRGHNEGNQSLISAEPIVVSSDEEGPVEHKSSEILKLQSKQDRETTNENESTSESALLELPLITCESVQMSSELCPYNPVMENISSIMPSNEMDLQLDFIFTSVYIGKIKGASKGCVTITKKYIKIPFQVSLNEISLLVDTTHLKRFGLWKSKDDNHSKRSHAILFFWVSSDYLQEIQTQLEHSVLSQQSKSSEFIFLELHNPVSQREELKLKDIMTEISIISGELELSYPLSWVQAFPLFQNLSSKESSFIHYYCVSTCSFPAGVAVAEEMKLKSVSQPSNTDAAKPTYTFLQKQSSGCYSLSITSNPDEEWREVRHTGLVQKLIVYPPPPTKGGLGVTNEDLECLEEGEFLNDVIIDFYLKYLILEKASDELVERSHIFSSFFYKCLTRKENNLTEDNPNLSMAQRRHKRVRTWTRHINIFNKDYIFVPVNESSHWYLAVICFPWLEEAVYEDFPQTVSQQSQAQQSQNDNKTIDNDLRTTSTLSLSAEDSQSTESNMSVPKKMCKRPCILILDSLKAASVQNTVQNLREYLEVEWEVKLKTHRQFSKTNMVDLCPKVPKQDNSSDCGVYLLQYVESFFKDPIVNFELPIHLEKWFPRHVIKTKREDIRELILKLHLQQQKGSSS
It is filed as functional.

The target of experiment [18] is T2, Sentrin-specific protease 8 (Homo sapiens, UniProt Q96LD8).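 Also: luminescence read-out of SENP8 inhibition, dose-response confirmation following an ultra-high-throughput screen.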
T2 sequence (Q96LD8 whole entry): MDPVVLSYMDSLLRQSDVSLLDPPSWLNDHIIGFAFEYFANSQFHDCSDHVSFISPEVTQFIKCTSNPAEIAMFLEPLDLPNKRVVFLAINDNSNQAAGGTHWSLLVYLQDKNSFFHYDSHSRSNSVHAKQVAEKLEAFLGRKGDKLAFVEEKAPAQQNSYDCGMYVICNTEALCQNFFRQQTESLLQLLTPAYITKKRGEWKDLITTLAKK
It is filed as functional.

Experiment [19] addresses T3, Caspase-3 (Homo sapiens, UniProt P42574).
T3 sequence (P42574 whole entry): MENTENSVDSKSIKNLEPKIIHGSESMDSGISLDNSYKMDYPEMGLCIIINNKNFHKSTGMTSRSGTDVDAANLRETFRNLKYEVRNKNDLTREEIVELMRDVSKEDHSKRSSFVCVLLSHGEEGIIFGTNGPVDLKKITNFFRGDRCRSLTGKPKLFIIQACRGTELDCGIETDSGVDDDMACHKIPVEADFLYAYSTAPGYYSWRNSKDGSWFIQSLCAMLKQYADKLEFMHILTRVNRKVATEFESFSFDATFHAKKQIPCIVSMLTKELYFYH
It is filed as functional.

The target in experiment [20] is T4, Sentrin-specific protease 6 (Homo sapiens, UniProt Q9GZR1).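 Also: Luminescence-based dose-response confirmatory assay of SENP6 inhibition, following up an ultra-high-throughput screen.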
T4 sequence (Q9GZR1 whole entry): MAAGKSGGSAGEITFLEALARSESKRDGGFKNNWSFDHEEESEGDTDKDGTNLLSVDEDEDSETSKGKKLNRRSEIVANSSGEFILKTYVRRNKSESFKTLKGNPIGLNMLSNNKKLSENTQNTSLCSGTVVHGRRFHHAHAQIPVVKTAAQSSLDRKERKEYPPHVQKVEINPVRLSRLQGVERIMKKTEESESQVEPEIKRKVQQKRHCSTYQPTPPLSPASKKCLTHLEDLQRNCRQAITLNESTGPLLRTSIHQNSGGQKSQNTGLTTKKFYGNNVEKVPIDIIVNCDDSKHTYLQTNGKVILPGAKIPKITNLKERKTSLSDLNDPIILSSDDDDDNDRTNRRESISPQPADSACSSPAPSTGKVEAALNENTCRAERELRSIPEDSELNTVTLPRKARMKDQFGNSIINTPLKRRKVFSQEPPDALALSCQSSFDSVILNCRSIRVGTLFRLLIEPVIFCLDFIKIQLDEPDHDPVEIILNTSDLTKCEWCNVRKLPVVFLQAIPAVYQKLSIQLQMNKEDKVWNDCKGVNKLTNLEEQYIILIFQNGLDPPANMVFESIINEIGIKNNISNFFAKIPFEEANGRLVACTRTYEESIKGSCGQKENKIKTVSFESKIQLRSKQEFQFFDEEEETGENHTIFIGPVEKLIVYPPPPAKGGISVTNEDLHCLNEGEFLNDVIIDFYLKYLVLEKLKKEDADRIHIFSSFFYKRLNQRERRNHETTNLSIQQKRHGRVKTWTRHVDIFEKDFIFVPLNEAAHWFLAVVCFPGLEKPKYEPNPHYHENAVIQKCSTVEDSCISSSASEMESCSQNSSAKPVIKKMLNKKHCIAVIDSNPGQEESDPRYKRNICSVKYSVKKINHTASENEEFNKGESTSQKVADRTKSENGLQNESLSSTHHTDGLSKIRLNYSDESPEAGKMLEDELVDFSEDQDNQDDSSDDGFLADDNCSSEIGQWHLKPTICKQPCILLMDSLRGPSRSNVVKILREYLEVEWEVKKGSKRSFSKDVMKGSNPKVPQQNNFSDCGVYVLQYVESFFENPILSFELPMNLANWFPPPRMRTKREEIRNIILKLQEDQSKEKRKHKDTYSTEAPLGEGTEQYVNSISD
It is filed as functional.

For experiment [21], the system named is Vero. Description: cells. Conditions: Chlorocebus sabaeus, Vero. Format: functional, Chlorocebus sabaeus.

SWI/SNF-related matrix-associated actin-dependent regulator of chromatin subfamily A member 2, sequence (P51531 whole entry): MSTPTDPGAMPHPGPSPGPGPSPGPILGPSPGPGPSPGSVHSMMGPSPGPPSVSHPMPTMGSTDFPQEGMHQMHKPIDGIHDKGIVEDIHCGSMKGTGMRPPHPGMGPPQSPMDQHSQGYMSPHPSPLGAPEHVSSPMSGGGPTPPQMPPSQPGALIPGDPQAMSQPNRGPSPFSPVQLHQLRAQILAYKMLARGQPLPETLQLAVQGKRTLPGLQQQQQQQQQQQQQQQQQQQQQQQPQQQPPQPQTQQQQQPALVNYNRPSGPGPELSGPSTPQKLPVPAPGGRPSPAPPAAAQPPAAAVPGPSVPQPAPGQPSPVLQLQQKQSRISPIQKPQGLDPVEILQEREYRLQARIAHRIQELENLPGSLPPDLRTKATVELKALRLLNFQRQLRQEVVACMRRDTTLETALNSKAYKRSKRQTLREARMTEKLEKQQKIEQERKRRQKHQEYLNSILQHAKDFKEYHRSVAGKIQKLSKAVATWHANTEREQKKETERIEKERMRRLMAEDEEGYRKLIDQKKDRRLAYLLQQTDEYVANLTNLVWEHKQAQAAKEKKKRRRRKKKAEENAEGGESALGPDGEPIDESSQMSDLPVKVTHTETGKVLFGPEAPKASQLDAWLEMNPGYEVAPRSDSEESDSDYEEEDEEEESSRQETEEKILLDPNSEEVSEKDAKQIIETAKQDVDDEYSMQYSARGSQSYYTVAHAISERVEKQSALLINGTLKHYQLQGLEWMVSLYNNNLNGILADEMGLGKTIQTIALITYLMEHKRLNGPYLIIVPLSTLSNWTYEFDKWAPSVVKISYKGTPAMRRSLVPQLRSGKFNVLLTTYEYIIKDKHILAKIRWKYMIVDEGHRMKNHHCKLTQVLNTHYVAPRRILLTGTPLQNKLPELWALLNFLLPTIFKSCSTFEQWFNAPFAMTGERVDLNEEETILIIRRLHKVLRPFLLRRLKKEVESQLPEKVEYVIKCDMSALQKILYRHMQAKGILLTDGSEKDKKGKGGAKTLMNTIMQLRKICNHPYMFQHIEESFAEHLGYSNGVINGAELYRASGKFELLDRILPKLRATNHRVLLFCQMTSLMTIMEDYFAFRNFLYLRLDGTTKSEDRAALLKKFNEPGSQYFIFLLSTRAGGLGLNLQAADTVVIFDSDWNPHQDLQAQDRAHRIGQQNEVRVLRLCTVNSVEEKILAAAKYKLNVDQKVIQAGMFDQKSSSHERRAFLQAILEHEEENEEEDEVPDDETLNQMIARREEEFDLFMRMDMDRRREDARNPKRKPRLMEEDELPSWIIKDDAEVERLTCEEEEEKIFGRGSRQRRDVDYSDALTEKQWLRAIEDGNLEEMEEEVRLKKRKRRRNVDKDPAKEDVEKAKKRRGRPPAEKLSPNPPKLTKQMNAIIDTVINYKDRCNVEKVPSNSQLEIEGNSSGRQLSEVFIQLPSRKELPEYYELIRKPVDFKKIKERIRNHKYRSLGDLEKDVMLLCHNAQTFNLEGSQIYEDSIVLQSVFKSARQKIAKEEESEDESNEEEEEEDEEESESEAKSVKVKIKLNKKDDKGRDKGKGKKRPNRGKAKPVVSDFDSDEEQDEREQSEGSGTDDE

For the molecule `CN(Cc1ccc(OCC(O)CN2CCCCC2)cc1)Cc1ccnc2ccccc12` (stereo unspecified), the AC50 in experiment [1] was 4.07 µM (active); in [2], 1.37 µM (active); in experiment [3] it was 1.21 µM (active). In addition, in experiment [4], the IC50 is 3.4 µM (active).
Consider `Cc1ccc(NC(=O)COc2ccccc2C(N)=O)cc1S(=O)(=O)N1CCCCCC1`, for which, in experiment [4], the IC50 was 9.3 µM (active).
With `CSCC(CO)NC(=O)/C=C/c1c(C)[nH]c(=O)[nH]c1=O` (stereo unspecified), the GI50 is > 875 µM (inactive) in experiment [5], 518 µM (inactive) in [6] and 818 µM (inactive) in [7].
Consider `CC[C@]12c3[nH]c4ccc(Cl)cc4c3CCN1C(=O)[C@@H](CC(=O)NCCCN(C)C)C[C@@H]2C(=O)N1CCN(C(=O)c2ccco2)CC1`, for which the IC50 in [8] was 46.8 µM (inactive).
For `CCOC(=O)c1c(NC(=O)C(=O)N/N=C/c2ccccc2O)sc2c1CCCCC2`, the IC50 in experiment [4] is 6.55 µM (active). Also, the AC50 in experiment [9] is 2.31 µM (active).
As for `N[C@@H](CSCSC[C@H](N)C(=O)O)C(=O)O`, the GI50 is > 225 µM (inactive) in experiment [5], > 225 µM (inactive) in experiment [6] and > 71.1 µM (inactive) in [7].
For `COC(=O)c1ccc(Nc2nc(-c3ccncc3)nc3ccccc23)cc1`, in experiment [10], the IC50 was 98.4 µM (inactive).
For the molecule `Cc1ccc(/C=C/C(=O)NC2CCCCCCC2)o1`, the EC50 in experiment [11] and in experiment [12] was > 91.1 µM (inactive) throughout. Moreover, the IC50 in experiment [13] is > 80 µM (inactive).
Consider `CC(=O)NCCc1ccc(C(=O)COC(=O)c2cccs2)cc1`, for which the EC50 in [11] and in [12] was > 91.1 µM (inactive) in each case.
On to `CN(C)S(=O)(=O)N1CCN(CC(O)COc2ccc3cc(Br)ccc3c2)CC1` (stereo unspecified), for which the IC50 in experiment [14] is > 80 µM (inactive).
For `CSCCC(c1nnnn1C1CCCC1)N1CCC(n2c(O)nc3ccccc32)CC1` (stereo unspecified), the IC50 in [8] is 26.1 µM (inactive).
On to `Cc1nnc(SCc2nc3ccccc3[nH]2)s1`, for which, in experiment [8], the IC50 was 15.2 µM (inactive). Further, the EC50 in experiment [15] and in experiment [16] was > 20 µM (not active) in each case.
Turning to `O=C(O)c1ccc(CSc2nnc(-c3cccnc3)n2-c2ccc(Br)cc2)cc1`, the IC50 in experiment [8] was 11.8 µM (inactive).
Take `COc1ccc(-c2csc(NC(=O)c3ccco3)n2)cc1`: the IC50 in [17] was 8.46 µM (active); in experiment [18], 41.3 µM (active); in experiment [19], 31.1 µM (active); in [20], 28.5 µM (active).
On to `Nc1cc(S(=O)(=O)O)cc2cc(S(=O)(=O)O)c(/N=N/c3ccc(-c4ccc(/N=N/c5c(S(=O)(=O)O)cc6cc(S(=O)(=O)O)cc(N)c6c5O)cc4)cc3)c(O)c12`, for which the GI50 in experiment [6] and in [7] was > 100 µM (inactive) in each case.
Consider `COc1ccc(OC)c(Cc2cnc3nc(N)nc(N)c3c2C)c1` [PIRITREXIM ISETHIONATE], for which the IC50 in experiment [4] was 3.35 µM (active). Further, the CC50 in experiment [21] is 0.37 µM (active).
For the molecule `C=C1C(=O)[C@]23C[C@H]1CCC2[C@]1(C)C(=O)CC[C@@](C)(C(=O)O)C1C[C@@H]3O` (stereo partly specified), the EC50 in experiment [11] and in experiment [12] was > 91.2 µM (inactive) throughout.
For the molecule `CCOCCOc1ccc(OCCOCC)cc1`, the GI50 was 1.45 µM (inactive) in experiment [5], 15 µM (inactive) in experiment [6] and 3.36 µM (inactive) in experiment [7].
For the molecule `O=C(Nc1ccc(Cl)cc1)C1=Cc2ccccc2OC1`, the IC50 is 5.5 µM (active) in experiment [17], 10.1 µM (active) in experiment [18], 26.5 µM (active) in [19] and 9.3 µM (active) in [20].
Turning to `CC(C)=CC(=O)OC1C2C(C)=CC(O)C(O)C2(C)C2C3(O)OCC24C(CC(=O)OC14)C(C)C3O` (stereo unspecified), the GI50 in experiment [5] is 1.97 µM (inactive); in experiment [6], 0.0259 µM (active); in experiment [7], 0.0125 µM (active).

(Values after ChEMBL document CHEMBL1201862, “PubChem BioAssay data set” (2004).)
